From patent US9138659B2, “Compositions, methods, and systems relating to controlled crystallization and/or nucleation of molecular species” (Massachusetts Institute of Technology, priority 2010, dated 2015)

Assay: Nucleation induction time of aspirin on crosslinked polymer plates (non-porous and porous)
Type: physicochemical
Settings: for average induction time τ from linear fit ln(P)=−t/τ: bulk polymerization
Description: To further quantify the surface chemistry effect on nucleation kinetics, nucleation induction time distribution was measured with the API of interest. Nucleation induction time is an indicator of the surface nucleation activity because it can be shortened when the presence of a surface lowers the free energy barrier of nucleation. Due to the stochastic nature of nucleation events, a significant number of experiments were performed to obtain the probability distribution of nucleation induction time.
As an example of induction time measurements, polymer plates were prepared by UV polymerizing the mixture of a monomer and the crosslinker divinylbenzene held by Teflon holders. Subsequent drying under vacuum removed unreacted monomer molecules. Monomers used to synthesize polymer plates were 4-Acryloylmorpholine (AM), 4-Hydroxybutyl acrylate (HBA), 2-Carboxyethyl acrylate (CEA), and styrene (STY). AM, HBA, and CEA served as positive controls, whilst STY a negative control. Each polymer plate was inserted together with the Teflon holder vertically into the aspirin solution, and then the solution was quenched to initiate nucleation. The starting concentration and the nucleation temperature were chosen such that the supersaturation produced was high enough to give reasonably short induction time but low enough to suppress bulk nucleation. 48 vials of each polymer sample were tested simultaneously and the fraction of vials crystallized was recorded as a function of time to produce a plot of cumulative probability distribution of induction time, as shown in FIG. 4.
In FIG. 4: Cumulative probability distribution of nucleation induction time (a) and statistical analysis on the same data sets (b) obtained with polymers synthesized via bulk polymerization. Crystallization of aspirin was performed at supersaturation S=4.75. The linear regression in […] follows the formula ln(P)=−t/τ to obtain the average induction time τ. P is the probability for no crystallization event to occur within time t. […] The results of linear fitting are i) STY ln(P)=−t/243.9, R^2=0.987; ii) CEA ln(P)=−t/113.6, R^2=0.978; iii) HBA ln(P)=−t/38.2, R^2=0.995.
For example, by the PIPS method, the mixture of a monomer and the crosslinker divinylbenzene dissolved in ethanol was subjected to UV irradiation to initiate the polymerization. As the molecular weight of the polymer increases to a critical point, dynamic asymmetry between solvent molecules and the polymer lead to nucleation and growth of solvent-rich regions within the polymer matrix. Subsequent evaporation of the solvent during the vacuum drying leaves pores on the polymer films. One common feature shared by most porous surfaces is a raised edge surrounding the pore region, which may be a sign of eruptional behavior caused by fast solvent evaporation under vacuum. As determined by AFM, the pores found on polymer sample AM were around 100 nm in width and 4 nm in depth. Comparatively, polymer sample HBA carried pores about 50 nm in width and 5-8 nm in depth. The non-porous AM and HBA samples were synthesized by bulk polymerization method and used as a control and had relatively smooth surfaces despite a few impurities.

average induction time τ from linear fit ln(P)=−t/τ (CEA polymer, S=4.75, FIG. 4, in h): 113.6
average induction time τ from linear fit ln(P)=−t/τ (HBA polymer, S=4.75, FIG. 4): 38.2 h
average induction time τ from linear fit ln(P)=−t/τ (STY polymer, S=4.75, FIG. 4, in h): 243.9
Average induction time τ (non-porous AM polymer, S = 4.75): 38.2 h
Average induction time τ (non-porous HBA polymer, S = 4.75): 243.9 h
Average induction time τ (porous AM polymer, S = 4.2): 8.8 h
Average induction time τ (porous HBA polymer, S = 4.2): 54.6 h
SMILES: CC(=O)Oc1ccccc1C(=O)O [aspirin]
